# Measured values from patent publication US12011439B2, “Combination therapy using C—C chemokine receptor 4 (CCR4) antagonists and one or more immune checkpoint inhibitors” (CHEMOCENTRYX, INC., priority 2018, dated 2024).
# Assays:
# CCR4 [1] = target: T1, CCR4 (Homo sapiens, UniProt P51679); experiment: 125I-CCL17 binding, human cells; settings: buffer
# T1 sequence (P51679 1-360): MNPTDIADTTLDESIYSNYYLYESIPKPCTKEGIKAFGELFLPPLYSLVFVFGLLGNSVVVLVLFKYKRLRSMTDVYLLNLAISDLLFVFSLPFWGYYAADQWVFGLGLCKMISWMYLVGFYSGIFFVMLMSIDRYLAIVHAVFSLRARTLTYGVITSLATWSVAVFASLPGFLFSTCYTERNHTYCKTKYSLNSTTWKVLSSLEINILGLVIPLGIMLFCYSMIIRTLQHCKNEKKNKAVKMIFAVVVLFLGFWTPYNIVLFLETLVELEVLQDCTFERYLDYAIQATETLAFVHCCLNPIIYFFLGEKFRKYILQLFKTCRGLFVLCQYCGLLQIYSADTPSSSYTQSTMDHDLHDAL
# mCCR4 = target: T2, mCCR4 (Mus musculus, UniProt P51680); experiment: CCL22 chemotaxis, mouse CCR4 cells; type: cell-based; settings: Mouse mCCR4-Baf3 cells
# T2 sequence (P51680 1-360): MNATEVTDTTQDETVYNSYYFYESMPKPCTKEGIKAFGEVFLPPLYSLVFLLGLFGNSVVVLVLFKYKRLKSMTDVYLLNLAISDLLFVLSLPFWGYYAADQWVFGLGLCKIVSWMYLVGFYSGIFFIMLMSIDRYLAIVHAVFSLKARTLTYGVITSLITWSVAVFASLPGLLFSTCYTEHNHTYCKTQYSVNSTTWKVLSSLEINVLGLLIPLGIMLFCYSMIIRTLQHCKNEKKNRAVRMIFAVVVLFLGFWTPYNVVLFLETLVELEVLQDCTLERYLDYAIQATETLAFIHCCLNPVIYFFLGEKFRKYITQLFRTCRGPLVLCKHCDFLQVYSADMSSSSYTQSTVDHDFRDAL
# CCR4 [2] = target: T1, CCR4; experiment: CCL22 chemotaxis, human cells; type: cell-based
# [3] = Plasma compound concentrations at trough in the KCM study; type: in vivo, mice; settings: day 12, KCM model
compound,measurement,setting,value
C[C@@H](Nc1cc(C2CCN([C@H]3CCCN(CCC(=O)O)C3)CC2)ccc1Cl)c1ccc(Cl)cc1Cl [Compound 1],IC50,CCR4 [1]; Human CEM cells,23 nM
same,IC50,CCR4 [1]; Human lymphocytes,37 nM
same,Chemotaxis A2,mCCR4; 100% serum,60 nM
same,Chemotaxis A2,mCCR4; buffer,4 nM
same,Chemotaxis A2,"CCR4 [2]; Human CEM cells, 100% serum",20 nM
same,Chemotaxis A2,"CCR4 [2]; Human CEM cells, buffer",2 nM
same,Chemotaxis A2,"CCR4 [2]; Human lymphocytes, 100% serum",20 nM
same,Chemotaxis A2,"CCR4 [2]; Human lymphocytes, buffer",10 nM
same,Plasma compound concentrations at trough,[3],Adequate compound levels
